Marks after values point to notes of the source that are not given here.
Key:
NRF2 = assay: Reporter assay: NRF2 activating action in HCE-T/ARE-Luc cells (ARE luciferase reporter gene assay); format: cell-based, human; details: N=3
Protocol: The NRF2 activating action of the compounds on cells was measured by a reporter gene assay. pGL4.37[luc2P/ARE/Hygro] (Promega) was introduced into HCE-T cells using FuGENE HD. Cells that acquired drug resistance as a result of transduction were screened by culture in the presence of 50 μg/mL hygromycin, and a clone strain, HCE-T/ARE-Luc cells, was established.
HCE-T/ARE-Luc cells were cultured using DMEM/F12 medium containing 10 ng/mL hEGF, 5 μg/mL insulin, 5% FBS, and 40 μg/mL gentamicin. As the assay medium, a medium with the same composition as that for the culture was prepared using phenol red-free DMEM/F12 medium.
HCE-T/ARE-Luc cells were seeded in a 96-well polystyrene microplate (FALCON) with 10000 cells per well. The cells were incubated in a CO2 incubator at 37° C. for 16 hours to allow for cell adhesion. The test substance was dissolved in dimethylsulfoxide to prepare a solution at a concentration 1000 times higher than the test concentration. The cells were treated with the test substance diluted 1000-fold with the assay medium and cultured for 24 hours. When measuring the activity of the reporter, the medium containing the test substance was removed, and then a new medium and a substrate of ONE-GloEX Luciferase Assay System (Promega) were added. The plate was shaken for 1 minute and then allowed to stand at ordinary temperature for 10 minutes, and luminescence was detected using the GloMax Discover System (Promega).
The test was performed at N=3, and the 50% activation concentration of each test substance was calculated by creating a calibration curve between two concentrations across the luminescence incensity of 50%.
(§1) Compounds A1/A2, compounds B1/B2, compounds C1/C2, and compounds D1/D2 were used as test substances. Binding assay and reporter assay were performed as in Test Example 1-1 and Test Example 1-2.

[1] = target: binding between NRF2 and KEAP1 (Homo sapiens (Human), UniProt Q14145); assay: Binding assay: inhibition of binding between NRF2 and KEAP1 by BRET (NanoLuc-NRF2 and KEAP1-HaloTag cell lysates); details: N=2
Protocol: The inhibitory activity of each compound on the binding between NRF2 and KEAP1 was measured by bioluminescence resonance energy transfer (BRET) assay. A plasmid having human NRF2 (Original Clone ID: ha01449s1) sequence fused with NanoLuc (19 kDa, Promega) at the N-terminal was transduced into HCE-T cells (immortalized human corneal epithelial cells) using FuGENE HD (Promega). 48 hours after transduction, the cell lysate was collected and used as an NRF2-expressing cell lysate. A plasmid having human KEAP1 (Original Clone ID: cs00328) sequence fused with HaloTag (33 kDa, Promega) at the C-terminal was transduced into HCE-T cells using FuGENE HD (Promega). After 24 hours, HaloTag Nano BRET 618 Ligand (Promega) was added to the medium. The cell lysate cultured for 24 hours after the addition was used as a KEAP1-expressing cell lysate.
The NRF2-expressing cell lysate and the KEAP1-expressing cell lysate were adjusted so that the luminescence and fluorescence intensities per well were constant. Tables 1 and 2 show the formulation of each reaction solution.
Each test substance at a concentration 100 times higher than the test concentration was dissolved in dimethylsulfoxide for adjustment. 49 μL of KEAP1 solution was added to a 96-well polystyrene microplate (FALCON) to which 1 μL of each test substance solution was added, followed by incubation for 15 minutes. Then, 50 μL of NRF2 solution was added to the above solution, followed by incubation for 1 hour. To measure the binding between NRF2 and KEAP1, NanoBRET Nano-Glo Substrate (Promega) diluted with Opti-Mem (Thermo Fisher Scientific) was added, followed by shaking for 30 seconds. Then, luminescence and fluorescence were measured using the GloMax Discover System (Promega). A 495-nm short pass filter and a 600-nm long pass filter were respectively used to measure donor and acceptor emission values. A value obtained by dividing the acceptor emission value by the donor emission value was regarded as BRET value. A BRET value when the compound was not added, and a BRET value when the KEAP1 solution was not added were respectively used as binding rates of 100% and 0%, and the binding rate when the compound was added was calculated. Further, using this binding rate, the 50% binding inhibitory activity concentration (IC50) was calculated from the following formula. The test was performed at N=2.
IC50(M)=10^(LOG(A/B)×(50−C)/(D−C)+LOG(B)) • A: higher concentration out of 2 close concentrations across the inhibition rate of 50% • B: lower concentration out of 2 close concentrations across the inhibition rate of 50% • C: inhibition rate at B • D: inhibition rate at A
as §1

HCE-T cells = assay: Cell viability test in HCE-T cells (Cell Counting Kit-8, 24 hours); format: cell-based, human; details: mean, N=3
Protocol: To confirm cell viability, HCE-T cells were seeded at 10000 cells per well in a 96-well polystyrene microplate (IWAKI). The cells were cultured in a CO2 incubator at 37° C. for 16 hours to allow the cells to adhere. The culture of the HCE-T cells was performed using DMEM/F12 medium containing 10 ng/mL hEGF, 5 μg/mL insulin, 5% FBS, and 40 μg/mL gentamicin.
Each test substance was dissolved in dimethyl sulfoxide to prepare a stock solution with a concentration that is 1000 times the test concentration. DMEM/F12 medium containing 40 μg/mL gentamicin was used as assay medium. The medium containing serum and growth factors was removed and replaced with assay medium in which each test substance was appropriately serially diluted, and the cell viability was measured after 24 hours. Cell Counting Kit-8 (Dojindo Laboratories) was added to each well in an amount that is 1/10 the amount of the medium. Color reaction was performed for 1 hour in a CO2 incubator, and absorbance at 450 nm was measured with a microplate reader (Corona Electric Co., Ltd.). […] The test was performed at N=3.

[2] = Test Example 1-1, NRF2-KEAP1 BRET
[3] = Test Example 3, separated diastereomers, mean

Sequence of binding between NRF2 and KEAP1 (Q14145 whole entry, the tested form may be a part): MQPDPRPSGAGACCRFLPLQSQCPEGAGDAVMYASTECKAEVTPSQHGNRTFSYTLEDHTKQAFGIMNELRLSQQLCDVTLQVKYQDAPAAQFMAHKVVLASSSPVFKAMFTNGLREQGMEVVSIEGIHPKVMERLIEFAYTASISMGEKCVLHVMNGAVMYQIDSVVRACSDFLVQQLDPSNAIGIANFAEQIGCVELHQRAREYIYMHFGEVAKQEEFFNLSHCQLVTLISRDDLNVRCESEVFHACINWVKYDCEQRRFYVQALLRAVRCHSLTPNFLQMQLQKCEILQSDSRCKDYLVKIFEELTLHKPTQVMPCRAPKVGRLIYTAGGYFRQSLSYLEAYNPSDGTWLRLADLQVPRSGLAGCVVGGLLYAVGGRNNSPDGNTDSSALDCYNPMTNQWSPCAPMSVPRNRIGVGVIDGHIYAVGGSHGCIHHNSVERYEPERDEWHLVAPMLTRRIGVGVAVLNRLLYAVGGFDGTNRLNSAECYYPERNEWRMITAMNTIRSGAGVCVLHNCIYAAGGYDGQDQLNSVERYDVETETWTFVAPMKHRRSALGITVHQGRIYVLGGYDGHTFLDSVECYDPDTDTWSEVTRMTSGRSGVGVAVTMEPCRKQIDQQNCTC

| SMILES | EC50 (NRF2; Homo sapiens, Test Example 1-2, HCE-T/ARE-Luc cells, 24 hours) [nM] | IC50 [1, 2] [nM] | EC50 (NRF2; [3]) [nM] | IC50 [1, 3] [nM] | Cytotoxic concentration (concentration that does not affect cell viability) (HCE-T cells) |
| --- | --- | --- | --- | --- | --- |
| CC[C@@H]1CN(Cc2cc(C(c3cc(C)c(C(C)=O)s3)C(C)C(=O)O)ccc2C)S(=O)(=O)c2ccccc2O1 (stereo partly drawn) [Compound 2, 3-(5-acetyl-4-methylthiophen-2-yl)-3-(3-{[(R)-4-ethyl-1,1-dioxide-3,4-dihydro-2H-benzo[b][1,4,5]oxathiazepin-2-yl]methyl}-4-methylphenyl)-2-methylpropanoic acid] | 9 | 0.25 | – | – | – |
| CC[C@@H]1CN(Cc2cc(C(c3cc(C(C)=O)cs3)C(C)C(=O)O)ccc2C)S(=O)(=O)c2ccccc2O1 (stereo partly drawn) [Compound 3, 3-(4-acetylthiophen-2-yl)-3-(3-{[(R)-4-ethyl-1,1-dioxide-3,4-dihydro-2H-benzo[b][1,4,5]oxathiazepin-2-yl]methyl}-4-methylphenyl)-2-methylpropanoic acid] | – | 0.17 | – | – | – |
| CC[C@@H]1CN(Cc2cc(C(CC(=O)O)c3cc(C)c(C(C)=O)s3)ccc2C)S(=O)(=O)c2ccccc2O1 (stereo partly drawn) [Compound 7, 3-(5-acetyl-4-methylthiophen-2-yl)-3-(3-{[(R)-4-ethyl-1,1-dioxide-3,4-dihydro-2H-benzo[b][1,4,5]oxathiazepin-2-yl]methyl}-4-methylphenyl)propanoic acid] | – | 0.36 | – | – | – |
| CC[C@@H]1CN(Cc2cc(C(c3cc(F)c(C(C)=O)s3)C(C)(C)C(=O)O)ccc2C)S(=O)(=O)c2ccccc2O1 (stereo partly drawn) [Compound 11, 3-(5-acetyl-4-fluorothiophen-2-yl)-3-(3-{[(R)-4-ethyl-1,1-dioxide-3,4-dihydro-2H-benzo[b][1,4,5]oxathiazepin-2-yl]methyl}-4-methylphenyl)-2,2-dimethylpropanoic acid] | – | 0.23 | – | – | – |
| CC[C@@H]1CN(Cc2cc(C(c3ccc(C(C)=O)s3)C(C)(C)C(=O)O)ccc2C)S(=O)(=O)c2cnccc2O1 (stereo partly drawn) [Compound 48, 3-(5-acetylthiophen-2-yl)-3-(3-{[(R)-4-ethyl-1,1-dioxide-3,4-dihydro-2H-pyrido[4,3-b][1,4,5]oxathiazepin-2-yl]methyl}-4-methylphenyl)-2,2-dimethylpropanoic acid] | – | 0.39 | – | – | – |
| CC(=O)c1ccc(C(c2ccc(C)c(CN3CC(CCOCc4ccccc4)Oc4ccccc4S3(=O)=O)c2)C(C)C(=O)O)s1 (centres unmarked) [Compound 13, 3-(5-acetylthiophen-2-yl)-3-[3-({4-[2-(benzyloxy)ethyl]-1,1-dioxide-3,4-dihydro-2H-benzo[b][1,4,5]oxathiazepin-2-yl}methyl)-4-methylphenyl]-2-methylpropanoic acid] | – | 0.5 | – | – | – |
| CC[C@@H]1CN(Cc2cc(C(CC(=O)O)c3csc(C(C)=O)c3)ccc2C)S(=O)(=O)c2ccccc2O1 (stereo partly drawn) [Compound 15, 3-(5-acetylthiophen-3-yl)-3-(3-{[(R)-4-ethyl-1,1-dioxide-3,4-dihydro-2H-benzo[b][1,4,5]oxathiazepin-2-yl]methyl}-4-methylphenyl)propanoic acid] | – | 1.4 | – | – | – |
| CC[C@@H]1CN(Cc2cc(C(CC(=O)O)c3ccc(C(=O)NC)s3)ccc2C)S(=O)(=O)c2ccccc2O1 (stereo partly drawn) [Compound 21, 3-(3-{[(R)-4-ethyl-1,1-dioxide-3,4-dihydro-2H-benzo[b][1,4,5]oxathiazepin-2-yl]methyl}-4-methylphenyl)-3-[5-(methylcarbamoyl)thiophen-2-yl]propanoic acid] | – | 4.6 | – | – | – |
| CC[C@@H]1CN(Cc2cc(C(CC(=O)O)c3cc(F)c(C(C)=O)s3)ccc2C)S(=O)(=O)c2ccccc2O1 (stereo partly drawn) [Compound 8, 3-(5-acetyl-4-fluorothiophen-2-yl)-3-(3-{[(R)-4-ethyl-1,1-dioxide-3,4-dihydro-2H-benzo[b][1,4,5]oxathiazepin-2-yl]methyl}-4-methylphenyl)propanoic acid] | – | 0.36 | – | – | – |
| CC[C@@H]1CN(Cc2cc(C(CC(=O)O)c3ccc(C(N)=O)s3)ccc2C)S(=O)(=O)c2ccccc2O1 (stereo partly drawn) [Compound 23, 3-(5-carbamoylthiophen-2-yl)-3-(3-{[(R)-4-ethyl-1,1-dioxide-3,4-dihydro-2H-benzo[b][1,4,5]oxathiazepin-2-yl]methyl}-4-methylphenyl)propanoic acid] | – | 0.39 | – | – | – |

Continued, in another order:

| EC50 (NRF2; Homo sapiens, Test Example 1-2, HCE-T/ARE-Luc cells, 24 hours) [nM] | IC50 [1, 2] [nM] | EC50 (NRF2; [3]) [nM] | IC50 [1, 3] [nM] | SMILES | Cytotoxic concentration (concentration that does not affect cell viability) (HCE-T cells) |
| --- | --- | --- | --- | --- | --- |
| – | – | 3.12 | 0.15 | CC[C@@H]1CN(Cc2cc([C@@H](c3cc(OC)c(C(C)=O)s3)[C@@H](C)C(=O)O)ccc2C)S(=O)(=O)c2cnccc2O1 [Compound C1, (2R,3S)-3-(5-acetyl-4-methoxythiophen-2-yl)-3-(3-{[(R)-4-ethyl-1,1-dioxide-3,4-dihydro-2H-pyrido[4,3-b][1,4,5]oxathiazepin-2-yl]methyl}-4-methylphenyl)-2-methylpropanoic acid] | 53.5 µM |
| – | – | 513 | 5.17 | CC[C@@H]1CN(Cc2cc(C(c3ccc(C(C)=O)s3)C(C)(C)C(=O)O)ccc2C)S(=O)(=O)c2cnccc2O1 (single isomer, unassigned) [Compound D2] | 14.7* uM |
| – | – | 0.67 | 0.17 | CC[C@@H]1CN(Cc2cc(C(c3ccc(C(C)=O)s3)C(C)(C)C(=O)O)ccc2C)S(=O)(=O)c2cnccc2O1 (single isomer, unassigned) [Compound D1] | 34.1 µM |
| – | – | 5.82 | 0.14 | CC[C@@H]1CN(Cc2cc([C@@H](c3ccc(C(C)=O)s3)[C@@H](C)C(=O)O)ccc2C)S(=O)(=O)c2ccccc2O1 [Compound A1, (2R,3S)-3-(5-acetylthiophen-2-yl)-3-(3-{[(R)-4-ethyl-1,1-dioxide-3,4-dihydro-2H-benzo[b][1,4,5]oxathiazepin-2-yl]methyl}-4-methylphenyl)-2-methylpropanoic acid] | 111.4 µM |
| – | – | 317 | 0.71 | CC[C@@H]1CN(Cc2cc(C(c3ccc(C(C)=O)s3)[C@H](C)C(=O)O)ccc2C)S(=O)(=O)c2ccccc2O1 (some centres unmarked) [Compound A2] | 65.3** uM |
| – | – | 90.1 | 1.01 | CC[C@@H]1CN(Cc2cc(C(c3ccc(C(C)=O)s3)[C@H](C)C(=O)O)ccc2C)S(=O)(=O)c2cnccc2O1 (some centres unmarked) [Compound B2] | 181.1* uM |
| – | – | 777 | 0.89 | CC[C@@H]1CN(Cc2cc(C(c3cc(OC)c(C(C)=O)s3)[C@H](C)C(=O)O)ccc2C)S(=O)(=O)c2cnccc2O1 (some centres unmarked) [Compound C2] | 30.7* uM |
